This note sets out measurements from patent publication US6399083B1, “Cosmetic compositions containing chick pea extract and retinoids” (Unilever Home & Personal Care USA, division of Conopco, Inc., priority 1999, dated 2002).

In this assay the test system is CRABP-2. In words: CRABP-2 protein expression in fibroblasts by Western immuno-blotting and densitometric scanning. The class given is cell-based, Human. Conditions: for As % of control: control as 100%. On the procedure: Dried chick pea was purchased from local markets and powdered in a dry grinder. The alcoholic extract of chick pea was prepared by stirring 1 gram of the dry chick pea powder in 10 ml of ethanol for 4 to 24 hrs at room temperature. The extract was clarified by filtration and centrifugation, to obtain a 10% extract of chick pea in ethanol.
Human adult fibroblasts obtained from sun-protected inner arm of […] were used in this. Cells were grown in 1:1 DMEM/Hams F12 media containing 10% FBS, maintained at 37 C. in a 5% CO2 atmosphere under normal atmospheric oxygen tension. Third passage adult fibroblasts were grown in DMEM media with 10% FBS in 12-well plates at a seeding density of 40,000 cells/ml/well. The cells at 80% confluence were rinsed in serum free and phenol red free (PRF) DMEM media twice. Pre-treatment with chick pea extract for 4 hours was conducted and then dosed with retinoids and was incubated for 48 hours. After the incubation, the wells were washed twice with 1×PBS and the cell monolayer was harvested in 100 μI cell lysis buffer (contains 1×PBS, 1% TritonX, 0.5% sodium deoxycholate, 0.1% SDS containing protease inhibitor (10 mg/ml PMSF in isopropanol, 10 μl/ml)). The suspension was spun at 14000 rpm for 10 minutes, the supernatant collected and an aliquot of this supernatant was used for protein quantification. Protein concentration was determined using Pierce protein kit. The remainder of 100 μl supernatant (cell lysate) was denatured in a mixture of 40 μl sample buffer (NOVEX) and 0.5% Beta mercaptoethanol (BME) and by boiling the sample for 5 minutes. Equal amount of protein was then loaded onto 16% Tris-glycine gels for protein analysis by SDS page and Western Immuno-blotting for CRABP-2 protein expression.
To measure the levels of CRABP-2 in the fibroblasts prepared as described above, the cell supernatant was re-suspended in 4×sample buffer and 0.5% BME, boiled for 5 minutes and used for western blotting. Equal amounts of protein were loaded onto 16% Tris-glycine gels for CRABP-2 protein analysis by SDS page and Western Immuno-blotting. The gels were transferred to nitrocellulose blots and Western Blotting was carried out using monoclonal antibodies to CRABP-2 according to standard procedures. The CRABP-2 protein band was visualized in the Western Blots using the chemiluminescence system obtained from Santa Cruz Biotechnology (Santa Cruz, Calif.). The bands in the film were quantitated by densitometric scanning, the data from triplicate samples were calculated as % of control and expressed in the following tables as % increase over control (with control as 100%) +/−SD of triplicates.

Where [1] appears, read: Example 1: 100 nM retinoids and 0.1 μl of a 10% chick pea extract, 4 h extract pre-treatment, 48 h incubation, +/- SD of triplicates.
Setting [2] is: Example 1: 100 nM retinoids and 0.1 μl of a 10% chick pea extract, +/- SD of triplicates.
The mark [3] stands for this setting: Example 1: 100 nM retinoids and 0.1 μl of a 10% chick pea extract.
Setting [4] is: Example 3: 500 nM retinoids and 0.1 μl of a 10% chick pea extract, +/- SD of triplicates.
Where [5] appears, read: Example 3: 500 nM retinoids and 0.1 μl of a 10% chick pea extract.
[6] abbreviates: second table headed Example 3: 500 nM retinoids and 0.1 μl of a 10% chick pea extract, +/- SD of triplicates.
Where [7] appears, read: second table headed Example 3: 500 nM retinoids and 0.1 μl of a 10% chick pea extract.

As for `CC1=C(/C=C/C(C)=C/C=C/C(C)=C/CO)C(C)(C)CCC1` [Retinol], the CRABP-2 levels runs as follows: under setting [1], 2.02 +/− 0.23; under setting [2], 2.02 +/− 0.23; under setting [4], 0.72 +/− 0.04; under setting [6], 0.72 +/− 0.04. Also, the “As % of control” value reads like this: under setting [3], 289 +/− 34 % of control; under setting [2], 289 +/− 34 % of control; under setting [5], 102 +/− 6 % of control; under setting [7], 102 +/− 6 % of control.

Turning to `CCCCCCCCCCCCCCCC(=O)OC/C=C(C)/C=C/C=C(C)/C=C/C1=C(C)CCCC1(C)C` [Retinyl Palmitate, retinyl palmitate], the CRABP-2 levels is, setting by setting: under setting [1], 1.84 +/− 0.16; under setting [2], 1.84 +/− 0.16; under setting [4], 0.94 +/− 0.31; under setting [6], 0.94 +/− 0.31. Moreover, the “As % of control” value under setting [3] is 262 +/− 24 % of control, the “As % of control” value under setting [2] was 262 +/− 24 % of control, the “As % of control” value under setting [5] is 135 +/− 45 % of control and the “As % of control” value under setting [7] is 135 +/− 45 % of control.

With `CC(=O)OC/C=C(C)/C=C/C=C(C)/C=C/C1=C(C)CCCC1(C)C` [Retinyl acetate, retinyl acetate], the CRABP-2 levels was 1.44 +/− 0.26 under setting [1], 1.44 +/− 0.26 under setting [2], 1.65 +/− 0.49 under setting [4] and 1.65 +/− 0.49 under setting [6]. The “As % of control” value under setting [3] is 206 +/− 37 % of control, the “As % of control” value under setting [2] was 206 +/− 37 % of control, the “As % of control” value under setting [5] is listed as 235 +/− 70 % of control and the “As % of control” value under setting [7] is 235 +/− 70 % of control.

For `CCCCC/C=C\C/C=C\CCCCCCCC(=O)OC/C=C(C)/C=C/C=C(C)/C=C/C1=C(C)CCCC1(C)C` [Retinyl linoleate, retinyl linoleate], the CRABP-2 levels by setting is: under setting [1], 2.06 +/− 0.09; under setting [2], 2.06 +/− 0.09; under setting [4], 0.81 +/− 0.16; under setting [6], 0.81 +/− 0.16. The “As % of control” value under setting [3] is on record as 294 +/− 12 % of control, the “As % of control” value under setting [2] was 294 +/− 12 % of control, the “As % of control” value under setting [5] is on record as 115 +/− 23 % of control and the “As % of control” value under setting [7] is on record as 115 +/− 23 % of control.
